{"source": "patent US6534285B1", "about": "(priority 1984, dated 2003)", "origin": "cited, not measured here", "biological_target": "AIDS reverse transcriptase (Human immunodeficiency virus type 1 group M subtype B, UniProt P04585)", "settings": "reference 53"}
{"smiles": "Cc1ccc(C(=O)Nc2ccc(S(=O)(=O)O)c3cc(S(=O)(=O)O)cc(S(=O)(=O)O)c23)cc1NC(=O)c1cccc(NC(=O)Nc2cccc(C(=O)Nc3cc(C(=O)Nc4ccc(S(=O)(=O)O)c5cc(S(=O)(=O)O)cc(S(=O)(=O)O)c45)ccc3C)c2)c1", "note": "[Suramin]", "values": [{"measurement": "inhibition of AIDS reverse transcriptase", "result": "known inhibitor"}]}
